Laboratory results from ChEMBL document CHEMBL1139046, “3,4-Dihydro-2H-benzoxazinones as dual-acting 5-HT1A receptor antagonists and serotonin reuptake inhibitors” (Bioorg Med Chem Lett, 2007).
Calls of active or inactive are those of the source. The rule behind the calls is not given here.

How the values were obtained:
[1] = target: T1, 5-hydroxytryptamine receptor 1A (Homo sapiens, UniProt P08908); experiment: Displacement of [3H]WAY-100635 from human cloned 5HT1A receptor expressed in CHO cells; type: cell-based
T1 sequence (P08908 whole entry): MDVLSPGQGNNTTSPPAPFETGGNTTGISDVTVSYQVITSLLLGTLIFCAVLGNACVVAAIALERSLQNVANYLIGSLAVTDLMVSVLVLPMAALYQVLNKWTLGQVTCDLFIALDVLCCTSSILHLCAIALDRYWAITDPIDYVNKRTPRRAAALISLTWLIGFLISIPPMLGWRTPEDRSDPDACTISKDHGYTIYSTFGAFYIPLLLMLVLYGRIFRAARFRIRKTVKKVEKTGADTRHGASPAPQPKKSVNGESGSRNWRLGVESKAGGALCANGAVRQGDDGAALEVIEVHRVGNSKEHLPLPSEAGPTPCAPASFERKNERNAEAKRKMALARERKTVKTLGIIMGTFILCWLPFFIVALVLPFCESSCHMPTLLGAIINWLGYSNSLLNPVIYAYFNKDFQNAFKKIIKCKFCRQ

[2] = target: 5-hydroxytryptamine receptor 1B (Homo sapiens, UniProt P28222); experiment: Displacement of [3H]5-HT from human cloned 5HT1B receptor expressed in CHO cells; type: cell-based
[3] = target: 5-hydroxytryptamine receptor 1D (Homo sapiens, UniProt P28221); experiment: Displacement of [3H]5-HT from human cloned 5HT1D receptor expressed in CHO cells; type: cell-based
[4] = target: Sodium-dependent serotonin transporter (Rattus norvegicus, UniProt P31652); experiment: Inhibition of [3H]5-HT uptake at SERT in rat cortical synaptosomes; type: subcellular, Brain
[5] = target: 5-hydroxytryptamine receptor 2A (Homo sapiens, UniProt P28223); experiment: Displacement of [3H]ketanserin from human cloned 5HT2A receptor expressed in HEK293 cells; type: cell-based
[6] = target: 5-hydroxytryptamine receptor 2B (Homo sapiens, UniProt P41595); experiment: Displacement of [3H]5-HT from human cloned 5HT2B receptor expressed in HEK293 cells; type: cell-based
[7] = target: T2, 5-hydroxytryptamine receptor 2C (Homo sapiens, UniProt P28335); experiment: Displacement of [3H]mesulergine from human cloned 5HT2C receptor expressed in HEK293 cells; type: cell-based
T2 sequence (P28335 whole entry): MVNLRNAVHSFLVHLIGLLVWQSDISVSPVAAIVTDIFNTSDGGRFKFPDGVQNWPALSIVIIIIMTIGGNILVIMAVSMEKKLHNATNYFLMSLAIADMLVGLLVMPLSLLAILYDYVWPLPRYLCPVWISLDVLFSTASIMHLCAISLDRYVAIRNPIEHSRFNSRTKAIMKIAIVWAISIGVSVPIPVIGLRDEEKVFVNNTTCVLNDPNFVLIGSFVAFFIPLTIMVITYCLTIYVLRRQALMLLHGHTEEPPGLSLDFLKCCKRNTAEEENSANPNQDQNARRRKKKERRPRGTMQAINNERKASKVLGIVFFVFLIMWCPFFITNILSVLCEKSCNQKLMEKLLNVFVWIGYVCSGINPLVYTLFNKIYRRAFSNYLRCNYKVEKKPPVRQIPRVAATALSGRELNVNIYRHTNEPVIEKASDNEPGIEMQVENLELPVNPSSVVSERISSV

[8] = target: 5-hydroxytryptamine receptor 6 (Homo sapiens, UniProt P50406); experiment: Displacement of [3H]LSD from human cloned 5HT6 receptor expressed in HeLa cells; type: cell-based
[9] = target: 5-hydroxytryptamine receptor 7 (Homo sapiens, UniProt P34969); experiment: Displacement of [3H]5CT from human cloned 5HT7a receptor expressed in HEK293 cells; type: cell-based
[10] = Blood clearance in rat at 3 mg/kg, po; type: ADME, organism-based; parameters: dose 3 mg/kg, route oral; conditions: whole blood
[11] = Oral bioavailability in rat at 3 mg/kg, po; type: ADME, organism-based; conditions: in vivo
D(2) dopamine receptor = D(2) dopamine receptor (Homo sapiens, UniProt P14416); experiment: Displacement of [125I]iodosulpiride from human cloned D2 receptor expressed in CHO cells; type: cell-based
D(3) dopamine receptor = D(3) dopamine receptor (Homo sapiens, UniProt P35462); experiment: Displacement of [125I]iodosulpiride from human cloned D3 receptor expressed in CHO cells; type: cell-based
[12] = Ratio of drug level in brain to blood in rat
[13] = target: Alpha-1B adrenergic receptor (Homo sapiens) (UniProt P35368); experiment: Binding affinity at adrenergic alpha 1b receptor
Homo sapiens [14] = organism: Homo sapiens; experiment: Selectivity for human 5TH1A over human 5HT1B
Homo sapiens [15] = organism: Homo sapiens; experiment: Selectivity for human 5TH1A over human 5HT1D
[16] = Selectivity for rat SERT over human 5HT1B
[17] = Selectivity for rat SERT over human 5HT1D
[18] = target: T3, 5-hydroxytryptamine receptor 1A (Homo sapiens) (UniProt P08908); experiment: Intrinsic activity at 5HT1A receptor expressed in HEK293 cells relative to 5HT by [35S]GTPgammaS binding assay; type: functional, cell-based
T3 sequence (whole entry): T1 sequence (P08908 whole entry)

[19] = target: T4, 5-hydroxytryptamine receptor 1A (Rattus norvegicus, UniProt P19327); experiment: Agonist activity at rat 5HT1A receptor; type: functional
T4 sequence (P19327 whole entry): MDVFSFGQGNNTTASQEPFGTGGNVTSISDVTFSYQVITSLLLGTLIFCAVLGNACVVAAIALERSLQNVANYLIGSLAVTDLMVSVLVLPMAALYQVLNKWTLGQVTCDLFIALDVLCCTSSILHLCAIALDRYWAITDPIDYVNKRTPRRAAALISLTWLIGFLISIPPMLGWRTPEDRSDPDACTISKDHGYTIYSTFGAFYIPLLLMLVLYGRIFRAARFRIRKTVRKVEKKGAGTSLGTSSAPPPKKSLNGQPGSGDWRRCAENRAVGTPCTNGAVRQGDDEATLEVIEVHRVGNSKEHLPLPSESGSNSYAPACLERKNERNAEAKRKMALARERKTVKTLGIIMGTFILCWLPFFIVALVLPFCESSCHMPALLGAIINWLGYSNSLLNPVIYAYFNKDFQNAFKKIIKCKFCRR

[20] = Agonist activity at guinea pig 5HT1A receptor; type: functional, Cavia porcellus
Rattus norvegicus [21] = organism: Rattus norvegicus; experiment: Ex vivo inhibition of [3H]5-HT uptake at SERT in rat cortical synaptosomes; type: functional; conditions: Brain
Rattus norvegicus [22] = experiment: Ex vivo displacement of [3H]WAY-100635 from 5HT1A receptor in rat cortex at 1 mg/kg, po; type: functional
Rattus norvegicus [23] = experiment: Ex vivo displacement of [3H]8-OH DPAT from 5HT1A receptor in rat cortex at 1 mg/kg, po; type: functional
[24] = Agonist activity at marmoset 5HT1A receptor; type: functional, Callithrix jacchus
Rattus norvegicus [25] = organism: Rattus norvegicus; experiment: Ex vivo displacement of [3H]WAY-100635 from 5HT1A receptor in rat cortex; type: functional, organism-based
Rattus norvegicus [26] = organism: Rattus norvegicus; experiment: Ex vivo displacement of [3H]8-OH DPAT from 5HT1A receptor in rat cortex; type: functional, organism-based
Rattus norvegicus [27] = experiment: Attenuation of 8-OH DPAT induced locomotor activity in po dosed rat; type: functional
Rattus norvegicus [28] = experiment: Effect on locomotor activity in rat up to 10 mg/kg

Sequence of 5-hydroxytryptamine receptor 7 (P34969 whole entry): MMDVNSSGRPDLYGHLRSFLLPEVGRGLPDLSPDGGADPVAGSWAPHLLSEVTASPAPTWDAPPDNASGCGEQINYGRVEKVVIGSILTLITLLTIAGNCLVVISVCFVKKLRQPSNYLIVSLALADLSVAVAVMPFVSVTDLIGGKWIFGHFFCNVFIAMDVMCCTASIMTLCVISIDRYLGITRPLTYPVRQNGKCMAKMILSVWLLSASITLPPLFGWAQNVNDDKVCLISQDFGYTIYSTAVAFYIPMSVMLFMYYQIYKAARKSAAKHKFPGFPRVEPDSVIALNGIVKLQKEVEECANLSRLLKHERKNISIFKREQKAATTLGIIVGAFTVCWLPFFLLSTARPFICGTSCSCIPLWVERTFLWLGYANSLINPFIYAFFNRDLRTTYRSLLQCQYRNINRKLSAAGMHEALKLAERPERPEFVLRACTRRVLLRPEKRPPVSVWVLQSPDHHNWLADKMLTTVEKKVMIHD
Sequence of Sodium-dependent serotonin transporter (P31652 whole entry): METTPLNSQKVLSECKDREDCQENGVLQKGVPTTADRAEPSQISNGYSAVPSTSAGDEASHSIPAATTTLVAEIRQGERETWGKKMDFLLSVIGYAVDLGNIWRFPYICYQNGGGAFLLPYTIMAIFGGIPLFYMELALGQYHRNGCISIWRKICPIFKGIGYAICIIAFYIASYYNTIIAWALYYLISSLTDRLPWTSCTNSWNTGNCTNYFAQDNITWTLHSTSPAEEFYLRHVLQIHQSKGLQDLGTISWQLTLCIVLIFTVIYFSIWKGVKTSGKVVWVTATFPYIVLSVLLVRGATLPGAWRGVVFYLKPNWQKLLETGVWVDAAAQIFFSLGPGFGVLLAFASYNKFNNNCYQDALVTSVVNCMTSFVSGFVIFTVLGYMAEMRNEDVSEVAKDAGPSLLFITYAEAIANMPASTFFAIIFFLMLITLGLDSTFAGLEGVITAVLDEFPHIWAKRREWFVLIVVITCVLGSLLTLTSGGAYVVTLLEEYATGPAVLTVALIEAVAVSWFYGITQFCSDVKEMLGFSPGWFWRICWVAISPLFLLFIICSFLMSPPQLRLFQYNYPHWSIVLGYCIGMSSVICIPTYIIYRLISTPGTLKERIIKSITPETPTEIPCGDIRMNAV
Sequence of 5-hydroxytryptamine receptor 2B (P41595 whole entry): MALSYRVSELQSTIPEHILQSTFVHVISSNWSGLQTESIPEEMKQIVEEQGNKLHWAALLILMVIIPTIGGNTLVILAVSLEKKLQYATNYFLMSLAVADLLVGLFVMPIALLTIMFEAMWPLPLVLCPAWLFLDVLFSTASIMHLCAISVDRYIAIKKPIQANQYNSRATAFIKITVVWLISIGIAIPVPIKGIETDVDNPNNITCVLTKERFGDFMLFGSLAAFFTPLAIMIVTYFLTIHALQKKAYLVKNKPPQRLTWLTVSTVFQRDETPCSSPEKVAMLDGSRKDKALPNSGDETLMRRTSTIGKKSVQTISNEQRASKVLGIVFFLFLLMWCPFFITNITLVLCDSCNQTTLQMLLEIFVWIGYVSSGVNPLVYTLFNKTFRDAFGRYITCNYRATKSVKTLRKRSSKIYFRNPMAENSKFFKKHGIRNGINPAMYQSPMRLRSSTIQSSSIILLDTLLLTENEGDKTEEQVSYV
Sequence of 5-hydroxytryptamine receptor 1D (P28221 whole entry): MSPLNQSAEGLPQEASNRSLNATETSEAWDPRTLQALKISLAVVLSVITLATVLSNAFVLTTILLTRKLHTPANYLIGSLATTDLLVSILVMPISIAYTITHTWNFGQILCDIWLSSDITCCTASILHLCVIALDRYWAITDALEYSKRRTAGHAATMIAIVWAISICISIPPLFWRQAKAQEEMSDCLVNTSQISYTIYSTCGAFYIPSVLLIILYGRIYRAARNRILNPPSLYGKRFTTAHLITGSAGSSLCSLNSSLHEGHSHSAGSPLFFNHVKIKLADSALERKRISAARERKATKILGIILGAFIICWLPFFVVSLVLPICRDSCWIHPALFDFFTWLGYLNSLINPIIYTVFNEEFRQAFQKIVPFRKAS
Sequence of 5-hydroxytryptamine receptor 6 (P50406 whole entry): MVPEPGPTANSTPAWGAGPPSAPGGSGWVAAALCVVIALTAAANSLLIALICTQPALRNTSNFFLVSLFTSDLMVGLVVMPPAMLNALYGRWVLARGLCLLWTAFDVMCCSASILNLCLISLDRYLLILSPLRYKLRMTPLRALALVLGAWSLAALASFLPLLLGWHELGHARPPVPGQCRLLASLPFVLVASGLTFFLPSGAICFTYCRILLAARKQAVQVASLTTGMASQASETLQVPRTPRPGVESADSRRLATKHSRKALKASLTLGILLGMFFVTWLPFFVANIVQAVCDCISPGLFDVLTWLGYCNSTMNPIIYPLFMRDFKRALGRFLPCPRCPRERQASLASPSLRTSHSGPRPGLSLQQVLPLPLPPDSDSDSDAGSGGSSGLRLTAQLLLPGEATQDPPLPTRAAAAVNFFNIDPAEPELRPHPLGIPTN
Sequence of D(2) dopamine receptor (P14416 whole entry): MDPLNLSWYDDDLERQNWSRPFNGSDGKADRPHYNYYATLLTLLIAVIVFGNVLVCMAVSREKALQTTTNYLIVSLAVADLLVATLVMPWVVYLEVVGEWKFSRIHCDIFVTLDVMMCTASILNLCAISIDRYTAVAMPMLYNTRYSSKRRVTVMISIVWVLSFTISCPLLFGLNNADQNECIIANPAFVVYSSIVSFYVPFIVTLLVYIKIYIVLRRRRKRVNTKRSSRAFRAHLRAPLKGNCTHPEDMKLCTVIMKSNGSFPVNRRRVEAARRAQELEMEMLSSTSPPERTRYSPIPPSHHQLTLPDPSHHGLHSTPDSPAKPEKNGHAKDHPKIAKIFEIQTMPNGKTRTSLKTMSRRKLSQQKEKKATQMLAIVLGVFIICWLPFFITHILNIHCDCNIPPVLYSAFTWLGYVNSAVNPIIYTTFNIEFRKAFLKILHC
Sequence of D(3) dopamine receptor (P35462 whole entry): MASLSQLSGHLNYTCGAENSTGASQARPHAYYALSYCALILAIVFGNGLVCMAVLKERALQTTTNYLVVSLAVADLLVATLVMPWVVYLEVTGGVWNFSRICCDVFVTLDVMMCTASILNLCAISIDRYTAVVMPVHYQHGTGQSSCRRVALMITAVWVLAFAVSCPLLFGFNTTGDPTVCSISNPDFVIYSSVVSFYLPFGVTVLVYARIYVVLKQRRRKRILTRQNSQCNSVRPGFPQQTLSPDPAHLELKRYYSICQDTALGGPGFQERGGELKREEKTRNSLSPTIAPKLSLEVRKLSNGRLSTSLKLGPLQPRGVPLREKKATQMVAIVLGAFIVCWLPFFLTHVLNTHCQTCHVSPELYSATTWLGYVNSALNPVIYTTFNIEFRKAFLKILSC
Sequence of 5-hydroxytryptamine receptor 2A (P28223 whole entry): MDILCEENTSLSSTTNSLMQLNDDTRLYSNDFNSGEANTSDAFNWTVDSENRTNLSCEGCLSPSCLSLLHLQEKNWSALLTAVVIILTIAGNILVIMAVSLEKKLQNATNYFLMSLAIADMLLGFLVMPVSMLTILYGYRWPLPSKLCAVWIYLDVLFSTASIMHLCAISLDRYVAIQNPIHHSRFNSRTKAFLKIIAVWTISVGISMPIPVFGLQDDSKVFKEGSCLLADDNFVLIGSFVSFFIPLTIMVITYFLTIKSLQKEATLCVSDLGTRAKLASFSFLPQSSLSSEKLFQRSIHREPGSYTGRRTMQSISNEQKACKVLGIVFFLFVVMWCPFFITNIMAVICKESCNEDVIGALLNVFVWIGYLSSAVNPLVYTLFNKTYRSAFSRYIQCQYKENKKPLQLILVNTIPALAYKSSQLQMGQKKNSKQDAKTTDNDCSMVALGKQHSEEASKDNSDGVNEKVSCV
Sequence of 5-hydroxytryptamine receptor 1B (P28222 whole entry): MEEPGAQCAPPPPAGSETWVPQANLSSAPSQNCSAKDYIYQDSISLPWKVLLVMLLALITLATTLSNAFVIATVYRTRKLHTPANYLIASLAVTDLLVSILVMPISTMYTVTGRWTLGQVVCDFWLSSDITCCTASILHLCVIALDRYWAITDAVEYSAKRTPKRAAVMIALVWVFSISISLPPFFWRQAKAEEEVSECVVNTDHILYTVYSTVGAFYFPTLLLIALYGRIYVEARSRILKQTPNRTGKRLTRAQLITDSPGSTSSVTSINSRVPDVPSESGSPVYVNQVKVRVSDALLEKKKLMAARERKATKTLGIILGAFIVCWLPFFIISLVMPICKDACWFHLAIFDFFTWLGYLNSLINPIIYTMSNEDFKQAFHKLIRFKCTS
Sequence of Alpha-1B adrenergic receptor (Homo sapiens) (P35368 whole entry, looked up): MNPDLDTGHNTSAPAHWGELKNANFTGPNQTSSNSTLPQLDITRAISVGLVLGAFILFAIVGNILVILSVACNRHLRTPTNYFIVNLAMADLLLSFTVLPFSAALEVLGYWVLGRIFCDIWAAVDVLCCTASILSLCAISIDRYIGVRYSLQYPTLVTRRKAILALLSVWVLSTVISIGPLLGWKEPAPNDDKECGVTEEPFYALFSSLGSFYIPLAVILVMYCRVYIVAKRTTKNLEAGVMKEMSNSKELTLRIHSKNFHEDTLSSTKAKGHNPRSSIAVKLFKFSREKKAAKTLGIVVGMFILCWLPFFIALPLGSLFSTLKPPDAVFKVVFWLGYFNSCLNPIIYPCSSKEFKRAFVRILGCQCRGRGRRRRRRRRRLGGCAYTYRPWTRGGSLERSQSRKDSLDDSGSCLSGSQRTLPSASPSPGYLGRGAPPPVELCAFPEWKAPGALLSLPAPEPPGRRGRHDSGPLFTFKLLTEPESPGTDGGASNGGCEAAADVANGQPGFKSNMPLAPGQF

SMILES	Ki [1] [nM]	Ki [2] [nM]	Ki [3] [nM]	Ki [4] [nM]	Ki [5] [nM]	Ki [6] [nM]	Ki [7] [nM]	Ki [8] [nM]	Ki [9] [nM]	CL/F [10] [mL/min/kg]	bioavailability [11] [%]	Ki (D(2) dopamine receptor) [nM]	Ki (D(3) dopamine receptor) [nM]	Kp [12]	Ki [13] [nM]	also measured
Cc1ccc2c(OCCN3CCC(Cc4ccc5c(c4)NC(=O)CO5)CC3)ccc(F)c2n1	20	794	79.4	7.94	–	–	–	–	–	–	–	–	–	–	–	–
Cc1ccc2c(OCCN3CCC(Cc4ccc5c(c4)NC(=O)CO5)CC3)c(F)ccc2n1	50.1	31.6	2.51	10	–	–	–	–	–	–	–	–	–	–	–	–
Cc1ccc2c(OCCN3CCC(Cc4ccc5c(c4)NC(=O)CO5)CC3)ccc(Cl)c2n1	39.8	158	63.1	12.6	–	–	–	–	–	–	–	–	–	–	–	–
Cc1ccc2c(OCCN3CCC(Cc4cc(F)c5c(c4)NC(=O)CO5)CC3)cc(F)cc2n1	3.98	316	79.4	63.1	> 10000	> 7940	> 10000	> 6310	79.4	25	88	> 10000	3980	0.4	–	Log Ki [13]: > -6
Cc1ccc2c(OCCN3CCC(Cc4ccc5c(c4)NC(=O)CO5)CC3)cc(F)cc2n1	0.794	> 1000	398	15.8	–	–	–	–	–	25	41	–	–	–	–	–
Cc1ccc2c(OCCN3CCC(Cc4cc5c(cc4F)OCC(=O)N5)CC3)cc(F)cc2n1	0.398	1000	251	7.94	2000	1000	1260	> 1000	39.8	19	54	2000	501	1.2	794	Selectivity ratio (Homo sapiens [14]): 100; Selectivity ratio (Homo sapiens [15]): 100; Selectivity ratio [16]: 100; Selectivity ratio [17]: 100; Intrinsic activity [18]: 0; Ki [19]: > 1 nM; Log Ki [20]: > -9; ED50 (Rattus norvegicus [21]): 3 mg/kg; inhibition in vivo at 1 mg/kg (Rattus norvegicus [22]): 50%; inhibition in vivo at 1 mg/kg (Rattus norvegicus [23]): 50%; Log Ki [24]: > -9; Activity (Rattus norvegicus [25]): Dose-dependent effect; Activity (Rattus norvegicus [26]): Dose-dependent effect; ED50 (Rattus norvegicus [27]): < 1 mg/kg
Cc1ccc2c(OCCN3CCC(Cc4cc(F)c5c(c4)NC(=O)CO5)CC3)cc(Cl)cc2n1	10	631	631	63.1	3160	3160	2510	> 10000	79.4	16	51	2510	1260	–	1580	–
Cc1ccc2c(OCCN3CCC(Cc4ccc5c(c4F)NC(=O)CO5)CC3)cccc2n1	2.51	2.51	0.794	15.8	–	–	–	–	–	41	–	–	–	4	–	–
Cc1ccc2c(OCCN3CCC(Cc4cc5c(cc4F)OCC(=O)N5)CC3)cc(Cl)cc2n1	2.51	2000	794	15.8	> 10000	–	> 5010	7940	39.8	18	60	3160	2000	–	2510	Log Ki ([6]; hek293): > -6; Selectivity ratio (Homo sapiens [14]): 100; Selectivity ratio (Homo sapiens [15]): 100; Selectivity ratio [16]: 100; Selectivity ratio [17]: 100; Intrinsic activity [18]: 0; Ki [19]: > 1 nM; Log Ki [20]: > -9; ED50 (Rattus norvegicus [21]): 3 mg/kg; inhibition in vivo at 1 mg/kg (Rattus norvegicus [22]): 50%; inhibition in vivo at 1 mg/kg (Rattus norvegicus [23]): 50%; Log Ki [24]: > -9; Activity (Rattus norvegicus [25]): Dose-dependent effect; Activity (Rattus norvegicus [26]): Dose-dependent effect; ED50 (Rattus norvegicus [27]): 3 mg/kg; Activity (Rattus norvegicus [28]): inactive
Cc1ccc2c(OCCN3CCC(Cc4ccc5c(c4)NC(=O)CO5)CC3)cc(C#N)cc2n1	20	1000	251	100	–	–	–	–	–	–	–	–	–	–	–	–
Cc1ccc2c(OCCN3CCC(Cc4ccc5c(c4F)NC(=O)CO5)CC3)cc(F)cc2n1	1.58	398	100	25.1	2000	–	2510	> 10000	126	27	39	1260	794	6.4	1260	–
Cc1ccc2c(OCCN3CCC(Cc4cc5c(cc4F)OCC(=O)N5)CC3)cccc2n1	0.501	20	3.16	7.94	–	–	–	–	–	36	33	–	–	–	–	–
Cc1ccc2c(OCCN3CCC(Cc4ccc5c(c4)NC(=O)CO5)CC3)cc(Cl)cc2n1	1.58	1260	794	10	–	–	–	–	–	25	56	–	–	0.2	–	–
Cc1ccc2c(OCCN3CCC(Cc4cc(F)c5c(c4)NC(=O)CO5)CC3)cccc2n1	5.01	0.794	0.398	6.31	–	–	–	–	–	22	–	–	–	–	–	–
Cc1ccc2c(OCCN3CCC(Cc4ccc5c(c4F)NC(=O)CO5)CC3)cc(Cl)cc2n1	2.51	1580	631	63.1	3980	1580	3980	> 10000	126	28	43	1260	1000	–	398	–
Cc1ccc2c(OCCN3CCC(Cc4ccc5c(c4)NC(=O)CO5)CC3)cccc2n1	–	–	–	–	3160	1580	> 7940	> 10000	200	50	45	1260	631	–	2510	–
